Assay results reported in ChEMBL document CHEMBL1134772, “Synthesis and evaluation of hydroxylated polyamine analogues as antiproliferatives” (J Med Chem, 2001).

What was measured:
[1] = Number of CD-1 mice died after administration of 100 mg/kg dose of compound; 0/5; type: functional, Mus musculus
[2] = Number of CD-1 mice died after administration of 200 mg/kg dose of compound; 0/5; type: functional, Mus musculus
[3] = Number of CD-1 mice died after administration of 400 mg/kg dose of compound; 0/5; type: functional, Mus musculus
[4] = Number of CD-1 mice died in a 5-day course after administration of 100 mg/kg dose of compound; 0/5; type: functional, Mus musculus
[5] = Number of CD-1 mice died in a 5-day course after administration of 200 mg/kg dose of compound; 0/5; type: functional, Mus musculus
[6] = Number of CD-1 mice died in a 5-day course after administration of 300 mg/kg dose of compound; 0/5; type: functional, Mus musculus
[7] = test system: L1210; assay: Inhibition of transport of [3H]-spermidine by L1210 cells; type: functional, cell-based, Mus musculus
[8] = test system: L1210; assay: Effect of compound on the level of spermidine in polyamine pools of L1210 cells after 48 hr of treatment with 20 uM compound dose; type: functional, Mus musculus
[9] = test system: L1210; assay: Effect of compound on the level of spermidine in polyamine pools of L1210 cells after 48 hr of treatment with 4 uM compound dose; type: functional, Mus musculus
[10] = test system: L1210; assay: Effect of compound on the level of spermine in polyamine pools of L1210 cells after 48 hr of treatment with 20 uM compound dose; type: functional, Mus musculus
[11] = test system: L1210; assay: Effect of compound on the level of spermine in polyamine pools of L1210 cells after 48 hr of treatment with 4 uM compound dose; type: functional, Mus musculus
[12] = test system: L1210; assay: Effect of compound on the level of putrescine in polyamine pools of L1210 cells after 48 hr of treatment with 4 uM compound dose; type: functional, Mus musculus
[13] = test system: L1210; assay: Effect of compound on the level of putrescine in polyamine pools of L1210 cells after 48 hr of treatment with 20 uM compound dose; type: functional, Mus musculus
[14] = test system: L1210; assay: Amount of compound present per 10e6 L1210 cells after 48 hr of treatment with 20 uM of it; type: functional, cell-based; conditions: Mus musculus
[15] = test system: L1210; assay: Amount of compound present per 10e6 L1210 cells after 48 hr of treatment with 4 uM of it; type: functional, cell-based; conditions: Mus musculus
[16] = test system: L1210; assay: Inhibitory concentration of compound against the growth of the L1210 cell line at 96 hr; type: functional, cell-based; conditions: Mus musculus, L1210, 96 h
[17] = test system: L1210; assay: Inhibitory concentration of compound against the growth of the L1210 cell line at 48 hr; type: functional, cell-based; conditions: Mus musculus, L1210, 48 h
[18] = molecular target: T1, Ornithine decarboxylase (Mus musculus) (UniProt P00860); assay: Percent of ornithine decarboxylase enzyme activity in L1210 cells after 4 hr of treatment with 1 uM dose of compound; type: cell-based
T1 sequence (whole entry): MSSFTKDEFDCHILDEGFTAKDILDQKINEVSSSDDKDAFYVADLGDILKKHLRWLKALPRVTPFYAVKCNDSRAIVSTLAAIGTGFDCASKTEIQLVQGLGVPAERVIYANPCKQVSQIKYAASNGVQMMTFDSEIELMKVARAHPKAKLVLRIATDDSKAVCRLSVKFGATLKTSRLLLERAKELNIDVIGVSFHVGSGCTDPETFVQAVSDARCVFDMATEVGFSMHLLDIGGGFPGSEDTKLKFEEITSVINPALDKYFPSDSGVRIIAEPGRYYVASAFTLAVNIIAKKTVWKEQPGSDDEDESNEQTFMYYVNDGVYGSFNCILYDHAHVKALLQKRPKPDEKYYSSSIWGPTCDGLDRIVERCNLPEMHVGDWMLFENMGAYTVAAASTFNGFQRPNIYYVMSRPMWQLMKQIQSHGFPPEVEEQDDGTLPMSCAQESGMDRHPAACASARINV

[19] = test system: L1210; assay: Percent of S-adenosyl-methionine decarboxylase enzyme activity in L1210 cells after 6 hr of treatment with 1 uM dose of compound; type: cell-based
[20] = molecular target: T2, Spermidine/spermine N(1)-acetyltransferase (SAT) (Mus musculus) (UniProt Q6P8J2+P48026); assay: Percent of Spermidine/spermine-N1- acetyltransferase enzyme activity in L1210 cells after 48 hr of treatment with 10 uM dose of compound; type: cell-based
[21] = Number of CD-1 mice died after administration of 325 mg/kg dose of compound; 5/10; type: functional, Mus musculus
[22] = Number of CD-1 mice died in a 6-day course after administration of 200 mg/kg dose of compound; 10/12; type: functional, Mus musculus
[23] = test system: L1210; assay: Amount of compound present per 10e6 L1210 cells after 48 hr of treatment with 100 uM of dose; type: functional, cell-based; conditions: Mus musculus
[24] = test system: L1210; assay: Amount of compound present per 10e6 L1210 cells after 48 hr of treatment with 10 uM of dose; type: functional, cell-based; conditions: Mus musculus
[25] = test system: L1210; assay: Effect of compound on the level of spermine in polyamine pools of L1210 cells after 48 hr of treatment with 100 uM of dose; type: functional, Mus musculus
[26] = test system: L1210; assay: Effect of compound on the level of spermine in polyamine pools of L1210 cells after 48 hr of treatment with 10 uM of dose; type: functional, Mus musculus
[27] = test system: L1210; assay: Effect of compound on the level of spermidine in polyamine pools of L1210 cells after 48 hr of treatment with 100 uM of dose; type: functional, Mus musculus
[28] = test system: L1210; assay: Effect of compound on the level of spermidine in polyamine pools of L1210 cells after 48 hr of treatment with 10 uM of dose; type: functional, Mus musculus
[29] = test system: L1210; assay: Effect of compound on the level of putrescine in polyamine pools of L1210 cells after 48 hr of treatment with 10 uM of dose; type: functional, Mus musculus
[30] = test system: L1210; assay: Effect of compound on the level of putrescine in polyamine pools of L1210 cells after 48 hr of treatment with 100 uM of dose; type: functional, Mus musculus
[31] = molecular target: T1, Ornithine decarboxylase (Mus musculus); assay: Percent of ornithine decarboxylase enzyme activity in L1210 cells after 4 hr of treatment with 1 uM of dose; type: cell-based
[32] = test system: L1210; assay: Percent of S-adenosyl-methionine decarboxylase enzyme activity in L1210 cells after 6 hr of treatment with 1 uM of dose; type: cell-based
[33] = molecular target: T2, Spermidine/spermine N(1)-acetyltransferase (SAT) (Mus musculus); assay: Percent of Spermidine/spermine-N1- acetyltransferase enzyme activity in L1210 cells after 48 hr of treatment with 10 uM of dose; type: cell-based
[34] = test system: L1210; assay: Inhibition of transport of [3H]spermidine in L1210 cells; type: functional, cell-based, Mus musculus
[35] = Number of CD-1 mice died after administration of 100 mg/kg dose of compound; 1/5; type: functional, Mus musculus
[36] = Number of CD-1 mice died after administration of 200 mg/kg dose of compound; 5/5; type: functional, Mus musculus
[37] = Number of CD-1 mice died in a 5-day course after administration of 10 mg/kg dose of compound; 0/7; type: functional, Mus musculus
[38] = Number of CD-1 mice died in a 5-day course after administration of 25 mg/kg dose of compound; 0/7; type: functional, Mus musculus
[39] = Number of CD-1 mice died in a 5-day course after administration of 50 mg/kg dose of compound; 0/7; type: functional, Mus musculus
[40] = test system: L1210; assay: Effect of compound on the level of spermidine in polyamine pools of L1210 cells after 48 hr of treatment with 20 uM of dose; type: functional, Mus musculus
[41] = test system: L1210; assay: Effect of compound on the level of spermine in polyamine pools of L1210 cells after 48 hr of treatment with 20 uM of dose; type: functional, Mus musculus
[42] = test system: L1210; assay: Effect of compound on the level of putrescine in polyamine pools of L1210 cells after 48 hr of treatment with 20 uM of dose; type: functional, Mus musculus
[43] = test system: L1210; assay: Amount of compound present per 10e6 L1210 cells after 48 hr of treatment with 20 uM of dose; type: functional, cell-based; conditions: Mus musculus
[44] = Number of CD-1 mice died in a 5-day course after administration of 75 mg/kg dose of compound; 0/5; type: functional, Mus musculus

T2 sequence (P48026 whole entry, looked up): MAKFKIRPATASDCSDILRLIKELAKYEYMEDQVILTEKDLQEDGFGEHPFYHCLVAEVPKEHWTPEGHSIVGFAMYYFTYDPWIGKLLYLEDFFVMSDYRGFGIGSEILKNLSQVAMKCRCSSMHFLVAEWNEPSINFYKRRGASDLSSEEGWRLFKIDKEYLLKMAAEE
T2 sequence (Q6P8J2 whole entry, looked up): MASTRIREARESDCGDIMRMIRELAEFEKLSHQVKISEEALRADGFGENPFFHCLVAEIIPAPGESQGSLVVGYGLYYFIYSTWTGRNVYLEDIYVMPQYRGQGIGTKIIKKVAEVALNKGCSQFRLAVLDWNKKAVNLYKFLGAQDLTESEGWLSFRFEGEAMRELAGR

SMILES: CCNC[C@H](O)CNCCCNC[C@@H](O)CNCC1CC1
- No. of deaths/mice injected [1]: 0
- No. of deaths/mice injected [2]: 0
- No. of deaths/mice injected [3]: 0
- No. of deaths/mice injected [4]: 0
- No. of deaths/mice injected [5]: 0
- No. of deaths/mice injected [6]: 0
- Ki [7]: 40 µM
- Control [8]: 32%
- Control [9]: 48%
- Control [10]: 123%
- Control [11]: 119%
- Control [12]: 43%
- Control [13]: 20%
- Amount (nmol/10^6 cells) [14]: 3.05
- Amount (nmol/10^6 cells) [15]: 1.94
- IC50 [16]: 970 nM
- IC50 [17]: 4.5 µM
- Control [18]: 37%
- Control [19]: 59%
- Control [20]: 2500%

SMILES: CCNCCCNCCCNCCCNCC [BIS(ETHYL)NORSPERMINE]
- No. of deaths/mice injected [21]: 5
- No. of deaths/mice injected [22]: 10
- Concentration [23]: 2.44 nM
- Concentration [24]: 1.59 nM
- Control [25]: 30%
- Control [26]: 31%
- Control [27]: 6%
- Control [28]: 14%
- Control [29]: 30%
- Control [30]: 0%
- Control [31]: 7%
- Control [32]: 42%
- Control [33]: 3880%
- Ki [34]: 7 µM

SMILES: CCNCCCNCCCNCCCNCC1CC1
- No. of deaths/mice injected [35]: 1
- No. of deaths/mice injected [36]: 5
- No. of deaths/mice injected [4]: 0
- No. of deaths/mice injected [37]: 0
- No. of deaths/mice injected [38]: 0
- No. of deaths/mice injected [39]: 0
- Concentration [23]: 2.59 nM
- Control [40]: 25%
- Control [25]: 56%
- Control [41]: 66%
- Control [42]: 22%
- Control [27]: 16%
- Concentration [43]: 2.17 nM
- Control [30]: 13%
- IC50 [16]: 550 nM
- IC50 [17]: 16 µM
- Control [31]: 26%
- Control [32]: 48%
- Control [33]: 3260%
- Ki [34]: 13 µM
- No. of deaths/mice injected [44]: 0

SMILES: CCNC[C@@H](O)CNCCCNC[C@H](O)CNCC
- Control [31]: 35%

SMILES: CCNC[C@H](O)CNCCCNC[C@@H](O)CNCC
- Control [31]: 61%
